Laboratory results: patent publication US20250064773A1, “TARGETING ERO1 ALPHA WITH AURONE DERIVATIVES” (West Virginia University Board of Governors on behalf of …, priority 2021, published 2025)

Assays:
purified human ERO1α = biological target: T1, purified human ERO1α (Homo sapiens, UniProt Q96HE7, C104A/C131A/C166A); test: Recombinant ERO1α enzyme assay (Amplex Red); assay type: biochemical; conditions: ratio of enzyme IC50 values
T1 construct: made in house
T1 sequence (Q96HE7 22-468 C104A/C131A/C166A): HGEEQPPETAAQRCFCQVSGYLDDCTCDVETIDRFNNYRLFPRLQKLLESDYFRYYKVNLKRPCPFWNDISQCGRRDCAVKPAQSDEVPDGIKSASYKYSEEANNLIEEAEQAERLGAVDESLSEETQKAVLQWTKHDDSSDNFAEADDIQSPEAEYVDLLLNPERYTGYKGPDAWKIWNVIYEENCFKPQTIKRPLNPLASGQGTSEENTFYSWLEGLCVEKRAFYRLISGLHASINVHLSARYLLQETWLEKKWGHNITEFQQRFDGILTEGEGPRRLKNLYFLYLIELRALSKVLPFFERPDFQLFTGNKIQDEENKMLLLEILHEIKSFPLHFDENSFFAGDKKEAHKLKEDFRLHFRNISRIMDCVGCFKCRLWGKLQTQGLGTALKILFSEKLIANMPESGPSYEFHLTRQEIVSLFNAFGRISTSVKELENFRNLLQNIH
Description: Based on previous work which established an aurone chemical class of compounds as FAD containing enzyme inhibitors^37, we evaluated sulfuretin analogs for ERO1α enzyme inhibition.
Quantification of enzymatic activity of ERO1α was performed using the Amplex Red as previously described^6.

U266 = test: MTT viability assay, U266; assay type: cell-based; conditions: Homo sapiens, U-266, Multiple Myeloma, read-out: IC50 Avg ± s.d. (n = 3), U266
Source text: Cell Lines: PC-9 cell line used was obtained from Sigma Aldrich and grown in RPMI 1640 medium with 10% fetal bovine serum and 1% penicillin/streptomycin. HCC4006, U266, MM1.s, and Beas-2B cell lines were obtained from ATCC and cultured in either RPMI 1640 or DMEM with 10% fetal bovine serum and 1% penicillin/streptomycin. All cell lines were also checked for mycoplasma every six months and subjected to short tandem repeat (STR) analysis for cell line validation. CRISPR Cas9: CRISPR Guide RNA 2 targeting ERO1α and CRISPR Guide RNA 4 were purchased from Genscript in the pLentiCRISPR V2 plasmid containing puromycin/ampicillin selection marker. Lentivirus was made from HEK 293T cells by co-transfection with GuideRNA of interest, pVSVG, and pPAX2 plasmids. […] Plate was then read on the BioTek Cytation 5 at 530/590 nm. […] Plate was then read at 570 nm. Treated wells were all compared to DMSO control wells to calculate percent growth inhibition and the IC50 was calculated using GraphPad (log(inhibitor) vs growth inhibition). […] Images were then quantified using ImageJ. […] Cells were aliquoted at 1 million cells per PCR tube in PBS and heated in Bio-Rad T100 thermal cycler at indicated temperatures (RT, 46° C., 48° C., 50° C., 52° C., 54° C., 56°, 58° C., and 60° C.) for 3 minutes and aggregation temperature was determined by western blot analysis. […]

MAO-B = biological target: T2, MAO-B (Homo sapiens, UniProt P27338); conditions: cited from earlier work
T2 sequence (P27338 1-520): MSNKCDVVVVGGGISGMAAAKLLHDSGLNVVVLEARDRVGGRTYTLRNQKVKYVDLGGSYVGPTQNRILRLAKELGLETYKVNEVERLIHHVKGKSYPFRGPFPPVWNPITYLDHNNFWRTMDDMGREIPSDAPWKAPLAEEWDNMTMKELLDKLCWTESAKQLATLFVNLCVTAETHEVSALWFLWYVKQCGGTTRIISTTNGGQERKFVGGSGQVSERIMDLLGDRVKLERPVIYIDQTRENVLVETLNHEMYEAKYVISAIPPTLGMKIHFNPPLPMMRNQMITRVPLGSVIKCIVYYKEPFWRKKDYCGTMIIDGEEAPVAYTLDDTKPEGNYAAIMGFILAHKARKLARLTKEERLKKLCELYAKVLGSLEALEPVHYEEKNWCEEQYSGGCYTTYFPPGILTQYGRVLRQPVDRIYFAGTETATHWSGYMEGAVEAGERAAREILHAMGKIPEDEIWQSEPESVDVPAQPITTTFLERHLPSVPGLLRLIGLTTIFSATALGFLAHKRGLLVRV

For CN(C)c1ccc(/C=C2\Oc3cc(O)ccc3C2=O)cc1 [Compound T151742], the “fold more potent compared to EN-460” value (purified human ERO1α) is listed as “approximately 2 fold”, the IC50 (U266) is listed as 8.93 ± 1.13 µM and the “inhibition of / activity against MAO-B” value (MAO-B) is listed as “showed activity”.
